Assay results from ChEMBL document CHEMBL5149985, “Discovery of cytotoxic natural products from Red Sea sponges: Structure and synthesis” (Eur J Med Chem, 2021).

How the values were obtained:
MDA-MB-231 [1] = assay: Anticancer activity against human MDA-MB-231 assessed as inhibition of cell growth incubated for 48 hrs by SRB assay; format: functional, cell-based; details: MDA-MB-231, 48 h
MDA-MB-231 [2] = assay: Anticancer activity against human MDA-MB-231 cells assessed as inhibition of cell growth; format: functional, cell-based
HCT-116 [3] = assay: Anticancer activity against human HCT-116 cells assessed as reduction in cell viability measured after 72 hrs by MTT assay; details: HCT-116, 72 h
MDA-MB-231 [4] = assay: Anticancer activity against human MDA-MB-231 cells assessed as reduction in cell viability measured after 72 hrs by MTT assay; format: functional, cell-based; details: MDA-MB-231, 72 h
HeLa [5] = assay: Anticancer activity against human HeLa cells assessed as reduction in cell viability measured after 72 hrs by MTT assay
HeLa [6] = assay: Anticancer activity against human HeLa assessed as inhibition of cell growth incubated for 48 hrs by SRB assay; format: functional, cell-based
HeLa [7] = assay: Antiproliferative activity against human HeLa cells assessed as cell viability measured after 24 hrs by MTT assay; format: functional, cell-based
HepG2 [8] = assay: Anticancer activity against human HepG2 cells assessed as inhibition of cell growth incubated for 48 hrs by ELISA based SRB assay; format: functional; details: HepG2, 48 h
MCF7 [9] = assay: Anticancer activity against human MCF7 cells assessed as inhibition of cell growth incubated for 48 hrs by ELISA based SRB assay; format: functional; details: MCF7, 48 h
L5178Y [10] = assay: Anticancer activity against mouse L5178Y cells assessed as reduction in cell growth by [3H] Thymidine assay relative to control; format: functional, cell-based
L5178Y [11] = assay: Anticancer activity against mouse L5178Y cells assessed as reduction in cell growth at 10 uG by [3H] Thymidine assay relative to control; format: functional; details: dose 10 µg
L5178Y [12] = assay: Anticancer activity against mouse L5178Y cells assessed as reduction in cell growth at 3 uG by [3H] Thymidine assay relative to control; format: functional; details: dose 3 µg
P388 = assay: Anticancer activity against mouse p-388 cells assessed as cell growth inhibition incubated for 3 days; format: functional, cell-based; details: P388, 72 h
HCT-116 [13] = assay: Anticancer activity against human HCT-116 cells assessed as inhibition of cell growth measured after 72 hrs by MTT assay; format: functional, cell-based; details: HCT-116, 72 h
[14] = Antiproliferative activity against mouse Pheochromocytoma cells(MPC) assessed as reduction in relative cell viability at 50 uM incubated for 24 hrs by proliferation assay relative to control; format: functional
[15] = Antiproliferative activity against mouse Pheochromocytoma cells(MTT) assessed as reduction in relative cell viability at 50 uM incubated for 24 hrs by proliferation assay; format: functional
[16] = Antiproliferative activity against mouse Pheochromocytoma cells(MPC) assessed as reduction in relative cell viability at 25 uM incubated for 24 hrs by proliferation assay relative to control; format: functional
[17] = Antiproliferative activity against mouse Pheochromocytoma cells(MTT) assessed as reduction in relative cell viability at 25 uM incubated for 24 hrs by proliferation assay; format: functional
[18] = Antiproliferative activity against mouse Pheochromocytoma cells(MTT) assessed as reduction in relative cell viability incubated for 24 hrs by proliferation assay; format: functional, cell-based
PC-3 = assay: Anticancer activity against human PC-3 cells assessed as inhibition of cell growth incubated for 96 hrs; format: functional, cell-based; details: PC-3, 96 h
A549 = assay: Anticancer activity against human A549 cells assessed as inhibition of cell growth incubated for 96 hrs; format: functional, cell-based; details: A549, 96 h
HepG2 [19] = assay: Anticancer activity against human HepG2 cells assessed as inhibition of cell growth incubated for 96 hrs; format: functional, cell-based; details: HepG2, 96 h
MDA-MB-231 [20] = assay: Antimigratory activity against human MDA-MB-231 cells assessed as inhibition of cell migration at 10 uM incubated for 24 hrs by scratch wound healing assay relative to control; format: functional; set-up: scale not given: the % may be the effect or the level left
MDA-MB-231 [21] = assay: Antimigratory activity against human MDA-MB-231 cells assessed as inhibition of cell migration at 2 uM incubated for 24 hrs by […] relative to control; format: functional; set-up: scale not given: the % may be the effect or the level left
MDA-MB-231 [22] = assay: Anticancer activity against human MDA-MB-231 cells assessed as cell viability measured after 24 hrs by MTT assay; format: functional, cell-based; details: MDA-MB-231, 24 h
HT-29 = assay: Anticancer activity against human HT-29 cells assessed as cell growth inhibition; format: functional, cell-based
KB 3-1 = assay: Anticancer activity against human KB 3-1 cells assessed as inhibition in cell growth; format: functional, cell-based
Caco-2 = assay: Anticancer activity against human Caco-2 cells assessed as inhibition of cell growth; format: functional, cell-based
HepG2 [23] = assay: Anticancer activity against human HepG2 cells assessed as inhibition of cell growth; format: functional, cell-based
[24] = Inhibition of actin (unknown origin) polymerization incubated for 20 mins in presence of ATP by ELISA analysis; set-up: species or system Homo sapiens
Homo sapiens = organism: Homo sapiens; assay: Inhibition of actin (unknown origin) polymerization at 1 uM incubated for 20 mins in presence of ATP by ELISA analysis relative to control
MDA-MB-231 [25] = assay: Anticancer activity against human MDA-MB-231 cells assessed as inhibition of cell growth incubated for 72 hrs by MTT assay; format: functional, cell-based; details: MDA-MB-231, 72 h
MCF7 [26] = assay: Potency index, ratio of latrunculin IC50 to test compound IC50 for cytotoxicity against human MCF7 cells; format: functional
[27] = Inhibition of actin (unknown origin) polymerization at 100 nM incubated for 20 mins in presence of ATP by ELISA analysis relative to control; details: Homo sapiens
MCF7 [28] = assay: Anticancer activity against human MCF7 cells assessed as inhibition of cell growth incubated for 72 hrs by MTT assay; format: functional, cell-based; details: MCF7, 72 h
MCF7 [29] = assay: Anticancer activity against human MCF7 cells assessed as cell growth inhibition incubated for 48 hrs by MTT assay; format: functional, cell-based; details: MCF7, 48 h
BT-474 = assay: Anticancer activity against human BT-474 cells assessed as cell growth inhibition incubated for 48 hrs by MTT assay; format: functional, cell-based; details: BT-474, 48 h
MDA-MB-231 [30] = assay: Anticancer activity against human MDA-MB-231 cells assessed as cell growth inhibition incubated for 48 hrs by MTT assay; format: functional, cell-based; details: MDA-MB-231, 48 h
SK-BR-3 = assay: Anticancer activity against human SK-BR-3 cells assessed as cell growth inhibition incubated for 48 hrs by MTT assay; format: functional, cell-based; details: SK-BR-3, 48 h
T47D = assay: Anticancer activity against human T47D cells assessed as cell growth inhibition incubated for 48 hrs by MTT assay; format: functional, cell-based
MDA-MB-231 [31] = assay: Antimigratory activity against human MDA-MB-231 cells assessed as reduction in cell growth measured after 48 hrs by SRB assay; format: functional, cell-based; details: MDA-MB-231, 48 h
HCT-116 [32] = assay: Antiproliferative activity against human HCT-116 cells assessed as cell viability measured after 24 hrs by MTT assay; format: functional, cell-based; details: HCT-116, 24 h

COC1=C(Br)[C@@H]2OC(=O)C[C@]2(O)C=C1Br
IC50 (MDA-MB-231 [1]): 18 µM | IC50 (MDA-MB-231 [2]): 18 µM

O=c1[nH]cc(F)c(=O)[nH]1 [FLUOROURACIL]
IC50 (HCT-116 [3]): 4.6 µM | IC50 (MDA-MB-231 [4]): 13 µM | IC50 (HeLa [5]): 12.3 µM

CCOC(=O)Cc1c(O)cc(Br)c(O)c1Br
IC50 (HeLa [6]): 13.3 µM | IC50 (HeLa [7]): 13.3 µM

CCCCCCCCCCCCCCCCCC[C@@H](O)C(=O)N[C@@H](CO)[C@H](O)[C@H](O)CCCCCCCCCCCCCCCC
IC50 (HepG2 [8]): 25.4 µM | IC50 (MCF7 [9]): 28.3 µM

CC1(C)CCC[C@]2(C)[C@H]3C[C@@H](O)[C@]4(C)C5=C(COC5=O)[C@@H](O)C[C@H]4[C@]3(C)CC[C@@H]12
IC50 (L5178Y [10]): 0.0075 µM | inhibition (INH) (L5178Y [11]): 55.3% | inhibition (INH) (L5178Y [12]): 40.5%

CC[C@H]1CCCC[C@@]2(C[C@@H]3CC[C@@H]4[C@H](C(=O)OCCCCCCCCCCCCCCCC(=O)N(CCCN)CCCCN)[C@]5(CCC[C@@H](C)O5)NC(=[N+]34)N2)O1
IC50 (P388): 0.1 µg/mL

CC(/C=C/c1ccccc1)=C\[C@H](O)[C@@H]1CCC(=O)N[C@@H](CO)C(=O)NC2C[n+]3cc(n([C@@H]4O[C@H](CO)[C@H](O)[C@H](O)[C@H]4O)c3)CC(NC(=O)CCC[C@@H](C(=O)[O-])NC(=O)[C@@H](O)CNC(=O)[C@H](Cc3ccc(Br)cc3)NC(=O)[C@H]([C@@H](O)C(N)=O)NC(=O)[C@H](CC(N)=O)NC2=O)C(=O)N[C@@H]([C@@H](C)O)C(=O)N[C@@H](CO)C(=O)N[C@@H](Cc2ccccc2)C(=O)N1 (stereo not given in full)
IC50 (HCT-116 [13]): 6 µM

COC1=C(Br)[C@H](O)[C@@]2(C=C1Br)CC(C(=O)NCCCCNC(=O)C1=NO[C@]3(C=C(Br)C(OC)=C(Br)[C@@H]3O)C1)=NO2 [AEROTHIONIN]
Activity [14]: 55.1% | Activity [15]: 48.3% | Activity [16]: 83.7% | IC50 (HeLa [7]): 29 µM | Activity [17]: 82.8% | EC50 [18]: 48.1 µM

CC(=O)O[C@@H]1OC=C2C1[C@]1(C)C(C[C@@H]2OC(C)=O)[C@]2(C)CCC3C(C)(C)CCC[C@]3(C)C2C[C@H]1O (stereo not given in full)
IC50 (PC-3): 0.077 µM | IC50 (A549): 0.027 µM | IC50 (HepG2 [19]): 0.041 µM

CCOC(=O)NCCCCNC(=O)C1=NO[C@]2(C=C(Br)C(OC)=C(Br)[C@@H]2O)C1 [SUBEREAMOLLINE A]
Activity (MDA-MB-231 [20]): 52% | Activity (MDA-MB-231 [21]): 38% | IC50 (MDA-MB-231 [22]): 0.4 µM

CC1=CC[C@H]2[C@@H]([C@@H]1CC[C@H]1[C@]3(C)CC[C@H](O)C(C)(C)O[C@H]3CC[C@]1(C)O)C(C)(C)CC[C@]2(C)O [SIPHOLENOL L]
IC50 (HT-29): 4.48 µM | IC50 (KB 3-1): 0.0051 µM | IC50 (Caco-2): 26.6 µM | IC50 (HepG2 [23]): 24 µM

C/C1=C/C(=O)O[C@@H]2C[C@@H](CC[C@H](C)/C=C\C=C\CC1)O[C@@](OCCc1ccccc1)([C@@H]1CSC(=O)N1)C2
IC50 [24]: 0.184 µM | inhibition (Homo sapiens): 94% | IC50 (MDA-MB-231 [25]): 2.71 µM | Ratio IC50 (MCF7 [26]): 4.8 | inhibition [27]: 31% | IC50 (MCF7 [28]): 0.1 µM

O[C@]12CCCCCC[C@@H]3CCN4CCC[C@](O)(CCCCCC[C@@H]5CCN(CCC1)[C@H]2O5)[C@@H]4O3
IC50 (MCF7 [29]): 8.5 µM | IC50 (BT-474): 15.2 µM | IC50 (MDA-MB-231 [30]): 15.2 µM | IC50 (SK-BR-3): 18.3 µM | IC50 (T47D): 46.1 µM

COC1=C(Br)C[C@]2(OC=C1Br)ON=C(C(=O)NCCCOc1c(Br)cc(CCNC=C3C(=O)C=CC3=O)cc1Br)[C@@H]2O
IC50 (MDA-MB-231 [31]): 0.31 µM | IC50 (HeLa [7]): 2.1 µM | IC50 (HCT-116 [32]): 5.1 µM | IC50 (MDA-MB-231 [22]): 0.29 µM
